Measurements reported in US11911396B2, “Use of compound in preparation of drug for treating cerebral small vessel disease” (GUANGZHOU CELLPROTEK PHARMACEUTICAL CO., LTD, priority 2017, dated 2024).

Key:
IL-1β = assay: Western blot of IL-1β in prefrontal cortex brain tissue, acute hypobaric hypoxia model; type: in vivo, cynomolgus monkeys; conditions: FIGS. 3A and 3B
Text: FIG. 3. […] A. Protein expression of inflammatory factors IL-6, IL-1β and TNF-α in the brain tissue of the prefrontal cortex of cynomolgus monkeys; B. Statistics of protein relative gray scan values. NN: Normobaric Normoxia group (N=3); HH: Hypobaric Hypoxia group (N=3); HH+Triol: Hypobaric Hypoxia with Triol administration group (N=3); HH+PROG: Hypobaric Hypoxia with control drug administration group (N=3). The gray value was obtained by scanning with Image Lab software, and the relative value was obtained after normalizing with α-Tubulin. One-way ANOVA analysis and Dunnutt's t test were used to perform statistical tests, and in the latter each group was compared with the HH group, *, p<0.05; **, p<0.01.
(§1) 1) Preparation of protein samples (see the instructions of M-PER protein lysate): After the cells had been processed for the specified time, the medium was aspirated and then washed with 4° C. pre-chilled PBS (0.01M pH7.2˜7.3) for 3 times. […] 2) BCA protein quantification (see the instructions of BCA protein quantification kit): corresponding components were added to a 96-well detection plate by the ratio of quantification reagent A solution:B solution:ddH2O:protein=100:2:7.5:5, and albumin standards diluted in gradient concentration were added to draw a standard curve. […] After the reaction, the absorbance of each well at a wavelength of 562 nm was detected using a microplate reader. […]

Heme Oxygenase-1 (HO-1) = assay: Western blot of HO-1 in prefrontal cortex brain tissue, acute hypobaric hypoxia model; type: in vivo, cynomolgus monkeys; conditions: after hypobaric hypoxia, FIG. 4
Text: FIG. 4. Triol enhanced the clearance of free hemoglobin in brain tissue by up-regulating CD163 and Heme Oxygenase-1 (HO-1) protein levels. A. Protein expression of hemoglobin scavenger receptor CD163 and heme oxygenase HO-1 in the brain tissue of the prefrontal cortex of cynomolgus monkeys; B. Statistics of protein relative gray scan values. The gray value was obtained by scanning with Image Lab software, and the relative value was obtained after normalizing with α-Tubulin. NN: Normobaric Normoxia group (N=3); HH: Hypobaric Hypoxia group (N=3); HH+Triol: Hypobaric Hypoxia with Triol administration group (N=3); HH+PROG: Hypobaric Hypoxia with progesterone administration group (N=3). […]
as §1

C[C@@]12CCCC1C1C[C@@H](O)[C@@]3(O)C[C@@H](O)CC[C@]3(C)C1CC2 (stereo partly drawn) [Triol, 5α-androst-3β,5,6β-triol]
expression level of IL-1β (IL-1β): significantly reduced | expression of HO-1 (Heme Oxygenase-1 (HO-1)): further up-regulated
